Assay results published in a melting point compilation (Tetko et al.).

Q: For `Nc1nc(-c2ccc3c(c2)COC3)cs1`, which melting point is on record?
A: 204 to 206 °C

Q: For `CC1CCc2[nH]c3ccc(C(=O)O)cc3c2C1` (stereo unspecified), which melting point is on record?
A: 218 to 220 °C

Q: With `Cc1nc(-c2ccc(F)cc2)cs1` as the compound, how does the melting point read?
A: 74 to 76 °C

Q: With `CNC(=O)Cc1ccc(N)cc1` as the compound, how does the melting point read?
A: 84 to 86 °C

Q: For `FC(F)(F)c1cc(Cl)nc(-c2cccnc2)n1`, which melting point is on record?
A: 114 to 116 °C

Q: Which melting point does the source give for `Cc1nccn1-c1ncccc1N` here?
A: 166 to 168 °C

Q: With `Cc1ccc(CN2CCSCC2)cc1N` as the compound, how does the melting point read?
A: 136 to 138 °C

Q: Which melting point does the source give for `O=C(O)C1CC(=O)N(c2ccc(Cl)cc2)C1` (stereo unspecified) here?
A: 149 to 151 °C

Q: For `COc1ccccc1-c1ccccc1C(=O)O`, which melting point is on record?
A: 149 to 151 °C

Q: With `CC(C)C(Br)C(=O)NC1CCS(=O)(=O)C1` (stereo unspecified) as the compound, how does the melting point read?
A: 139 to 141 °C

Q: For `NC(=O)COc1ccc(O)cc1`, which melting point is on record?
A: 154 to 156 °C

Q: With `CN(C)S(=O)(=O)c1ccc(Cl)nc1` as the compound, how does the melting point read?
A: 117 to 119 °C

Q: With `COc1ccccc1-c1cc(C(=O)O)c2c(C)noc2n1` as the compound, how does the melting point read?
A: 229 to 231 °C

Q: With `O=C(O)CNS(=O)(=O)c1ccc2c(c1)OCCCO2` as the compound, how does the melting point read?
A: 75 to 77 °C

Q: For `Cc1cc([N+](=O)[O-])cc(C)c1N`, which melting point is on record?
A: 161 to 163 °C

Q: For `CCOc1ccc(N)c(C(F)(F)F)c1`, which melting point is on record?
A: 69 to 71 °C

Q: With `O=C1C=CC(=O)N1c1cccc2ccccc12` as the compound, how does the melting point read?
A: 103 to 105 °C

Q: With `Cn1ncnc1N` as the compound, how does the melting point read?
A: 180 to 182 °C

Q: For `CC(CO)NC(=O)C1=Cc2cc(Br)ccc2OC1` (stereo unspecified), which melting point is on record?
A: 157 to 159 °C

Q: For `NC(=O)NC(CCC(=O)O)C(=O)O` (stereo unspecified), which melting point is on record?
A: 161 to 163 °C

Q: For `O=C(O)c1csc(I)c1`, which melting point is on record?
A: 136 to 138 °C

Q: For `NS(=O)(=O)C1CCNC1` (stereo unspecified), which melting point is on record?
A: 115 to 117 °C

Q: With `O=C(Cc1cccc(F)c1)c1cccc(F)c1` as the compound, how does the melting point read?
A: 49 to 51 °C

Q: With `O=C(O)c1nn(-c2ccc(Cl)cc2)cc1O` as the compound, how does the melting point read?
A: 248 to 250 °C

Q: For `O=C(O)c1ccc(CNC(=O)c2cccs2)cc1`, which melting point is on record?
A: 209 to 211 °C

Q: Which melting point does the source give for `O=C(O)C1CCCN(C(=O)c2cccc3ccccc23)C1` (stereo unspecified) here?
A: 255 to 257 °C

Q: Which melting point does the source give for `Cc1nc2ccc(N)cc2o1` here?
A: 129 to 131 °C

Q: With `O=S(=O)(NC1CCCNC1)c1ccccc1` (stereo unspecified) as the compound, how does the melting point read?
A: 133 to 135 °C

Q: For `NCCS(=O)(=O)Cc1ccccc1`, which melting point is on record?
A: 76 to 78 °C

Q: With `CCOC(=O)c1[nH]c2c(c1C)C(=O)CC(C)(C)C2` as the compound, how does the melting point read?
A: 159 to 163 °C

Q: For `Cn1cnnc1CO`, which melting point is on record?
A: 49 to 51 °C

Q: Which melting point does the source give for `Nc1nc(-c2ccncc2)cs1` here?
A: 172 to 174 °C

Q: For `CCCc1cc(=O)[nH]c(CCC)n1`, which melting point is on record?
A: 69 to 71 °C

Q: Which melting point does the source give for `NC(=O)C1OCCc2ccccc21` (stereo unspecified) here?
A: 169 to 171 °C

Q: For `CCc1cccc(NC(N)=S)c1`, which melting point is on record?
A: 85 to 87 °C

Q: Which melting point does the source give for `CCCS(=O)(=O)Nc1cccc(N)c1` here?
A: 63 to 65 °C

Q: Which melting point does the source give for `CC(=O)c1cccc(N2CCOC2=O)c1` here?
A: 82 to 84 °C

Q: With `Fc1cccc(-n2ccnc2)n1` as the compound, how does the melting point read?
A: 87 to 89 °C

Q: With `NCc1ccc(N2CCS(=O)(=O)CC2)cc1` as the compound, how does the melting point read?
A: 97 to 99 °C

Q: For `Nc1nnc(Cc2ccc(F)cc2)o1`, which melting point is on record?
A: 169 to 171 °C

Q: With `O=[N+]([O-])c1ccc(N2CCNCC2)nc1` as the compound, how does the melting point read?
A: 128 to 130 °C

Q: Which melting point does the source give for `O=C(O)c1ccccc1Oc1cccc(Br)c1` here?
A: 108 to 110 °C

Q: Which melting point does the source give for `NC1(c2ccc(Br)cc2)CCOCC1` here?
A: 85 to 87 °C

Q: For `Clc1cc(NCC2CC2)ncn1`, which melting point is on record?
A: 98 to 100 °C

Q: For `Brc1nn2cc(-c3ccccc3)nc2s1`, which melting point is on record?
A: 186 to 188 °C

Q: For `CCOc1cc(C=CC(=O)O)ccc1OCCOc1ccc(F)cc1`, which melting point is on record?
A: 105 to 107 °C

Q: Which melting point does the source give for `OC(c1cccc(F)c1)c1ccccn1` (stereo unspecified) here?
A: 78 to 80 °C

Q: For `N#Cc1cccc(/C=C/C(=O)O)c1`, which melting point is on record?
A: 246 to 248 °C

Q: For `COc1cc(CCl)c(OC)cc1Br`, which melting point is on record?
A: 65 to 67 °C

Q: For `Cc1cccc(F)c1C(=O)O`, which melting point is on record?
A: 114 to 116 °C

Q: Which melting point does the source give for `Cc1ccc(S(=O)(=O)N2CC(Cc3cccc(F)c3)C2)cc1` here?
A: 57 to 59 °C

Q: With `CC(=O)c1ccc(NC(=O)c2ccc(C#N)cc2)cc1` as the compound, how does the melting point read?
A: 228 to 230 °C

Q: With `O=C(O)c1cc2c(Cl)c(Cl)ccc2[nH]1` as the compound, how does the melting point read?
A: 281 to 283 °C

Q: Which melting point does the source give for `NC(=S)NCc1ccc(OC(F)(F)F)cc1` here?
A: 120 to 122 °C

Q: With `COC(=O)Nc1cccc(C(=O)O)c1` as the compound, how does the melting point read?
A: 229 to 231 °C

Q: For `NC(=O)c1c(N)sc2c1CCCC2`, which melting point is on record?
A: 153 to 155 °C

Q: Which melting point does the source give for `COC(=O)c1ccc(Oc2ccc([N+](=O)[O-])cc2)nn1` here?
A: 194 to 196 °C

Q: With `CN(C)c1ccc(NCc2ccc3ccccc3n2)cc1` as the compound, how does the melting point read?
A: 104 to 106 °C

Q: Which melting point does the source give for `O=[N+]([O-])c1c(Cl)nc2ccccn12` here?
A: 170 to 172 °C

Q: Which melting point does the source give for `O=C1NCCSC1Cc1ccccc1` (stereo unspecified) here?
A: 107 to 109 °C

Q: With `O=C(O)C=Cc1cc(Br)c2c(c1)OCCO2` as the compound, how does the melting point read?
A: 267 to 269 °C

Q: Which melting point does the source give for `O=C(CCl)Nc1cc([N+](=O)[O-])ccc1F` here?
A: 125 to 127 °C

Q: Which melting point does the source give for `O=C(O)CCc1cc(Cl)cs1` here?
A: 69 to 71 °C

Q: For `C=Cn1ccnc1CO`, which melting point is on record?
A: 103 to 105 °C

Q: With `O=C(O)c1ccc2[nH]nnc2n1` as the compound, how does the melting point read?
A: 277 to 279 °C

Q: Which melting point does the source give for `Cc1nn(-c2ccccc2)c2sc(C(=O)NN)cc12` here?
A: 264 to 266 °C

Q: With `Cc1nc(Cl)cc(Cl)n1` as the compound, how does the melting point read?
A: 44 to 46 °C

Q: With `COc1c(Cl)cc(Cl)cc1C=O` as the compound, how does the melting point read?
A: 85 to 87 °C

Q: With `COc1ccc2cc(N)ccc2n1` as the compound, how does the melting point read?
A: 101 to 103 °C

Q: With `O=C(O)Cc1cccc(OCCCOc2ccccc2)c1` as the compound, how does the melting point read?
A: 78 to 80 °C

Q: For `CN(C)S(=O)(=O)c1ccccc1CNC(=O)CCl`, which melting point is on record?
A: 87 to 89 °C
